The test system of the experiment is 653999-131-R-J2-PDC complex spheroids, growth inhibition. As to the kind of experiment: Anticancer human tumor 653999-131-R-J2-PDC patient-derived lung adenocarcinoma cell line growth inhibition [RAS]. The settings on record: for pIC50: curve of first compound; for viability, T/C: stronger effect = lower value. The procedure, abridged: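 Multi-cell-type spheroids: tumor cells plus HUVEC endothelial cells and mesenchymal stem cells. RAS-pathway inhibitors were combined with targeted agents, each dosed in half-log steps down from clinical Cmax, or from 10 microM when Cmax was unknown.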

Where [1] appears, read: second compound 0.0316 µM, first compound 0.0316 µM.
The mark [2] stands for this setting: second compound 0.0316 µM, first compound 0.1 µM.
Where [3] appears, read: second compound 0.0316 µM, first compound 0.316 µM.
[4] abbreviates: second compound 0.0316 µM, first compound 1 µM.
Setting [5] is: second compound 0.0316 µM, first compound 3.16 µM.
[6] abbreviates: second compound 0.0316 µM, first compound 10 µM.
Setting [7] is: second compound 0.1 µM, first compound 0.0316 µM.
The mark [8] stands for this setting: second compound 0.1 µM, first compound 0.1 µM.
The mark [9] stands for this setting: second compound 0.1 µM, first compound 0.316 µM.
Where [10] appears, read: second compound 0.1 µM, first compound 1 µM.
The mark [11] stands for this setting: second compound 0.1 µM, first compound 3.16 µM.
[12] abbreviates: second compound 0.1 µM, first compound 10 µM.
[13] abbreviates: second compound 0.316 µM, first compound 0.0316 µM.
Setting [14] is: second compound 0.316 µM, first compound 0.1 µM.
[15] abbreviates: second compound 0.316 µM, first compound 0.316 µM.
Where [16] appears, read: second compound 0.316 µM, first compound 1 µM.
Setting [17] is: second compound 0.316 µM, first compound 3.16 µM.
[18] abbreviates: second compound 0.316 µM, first compound 10 µM.
Where [19] appears, read: second compound 1 µM, first compound 0.0316 µM.
Where [20] appears, read: second compound 1 µM, first compound 0.1 µM.
Setting [21] is: second compound 1 µM, first compound 0.316 µM.
The mark [22] stands for this setting: second compound 1 µM, first compound 1 µM.
Where [23] appears, read: second compound 1 µM, first compound 3.16 µM.
The mark [24] stands for this setting: second compound 1 µM, first compound 10 µM.

pIC50: −log10 of the molar value. Bounds are passed on as bounds.

A word on the pIC50: it is the negative decadic logarithm of the IC50, by convention in mol/L. One may read the viability, T/C as the result in the treated group divided by that in the control group, in per cent. By IC50 is commonly meant the concentration at which inhibition is half-maximal.
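Further: spheroids exposed to the agents for seven days before the readout.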

As for `CC(C)NCC(C(=O)N1CCN(c2ncnc3c2C(C)CC3O)CC1)c1ccc(Cl)cc1` (stereo unspecified) + C=CC(=O)N1CCN(c2nc(OCC3CCCN3C)nc3c(F)c(-c4nc(N)cc(C)c4C(F)(F)F)c(Cl)cc23)C(C)C1, the pIC50 by setting is: (second compound 0.00316 µM) 5.88; (second compound 0.01 µM) 5.71; (second compound 0.0316 µM) 5.85; (second compound 0.1 µM) 5.81; (second compound 0.316 µM) 5.82; (second compound 1 µM) 6.03. The viability, T/C is 116% (second compound 0.00316 µM, first compound 0.0316 µM); 104% (second compound 0.00316 µM, first compound 0.1 µM); 96.6% (second compound 0.00316 µM, first compound 0.316 µM); 52% (second compound 0.00316 µM, first compound 1 µM); 41.7% (second compound 0.00316 µM, first compound 3.16 µM); 40.8% (second compound 0.00316 µM, first compound 10 µM). Further, the viability, T/C is 89.6% (second compound 0.01 µM, first compound 0.0316 µM); 100% (second compound 0.01 µM, first compound 0.1 µM); 69.1% (second compound 0.01 µM, first compound 0.316 µM); 61.1% (second compound 0.01 µM, first compound 1 µM); 44.2% (second compound 0.01 µM, first compound 3.16 µM); 40.9% (second compound 0.01 µM, first compound 10 µM). Further, the viability, T/C is 98.6% under setting [1]; 97.3% under setting [2]; 73.9% under setting [3]; 54% under setting [4]; 43.6% under setting [5]; 35.5% under setting [6]. Moreover, the viability, T/C was 104% under setting [7]; 95.1% under setting [8]; 76.2% under setting [9]; 52.9% under setting [10]; 45.1% under setting [11]; 37.7% under setting [12]. Besides, the viability, T/C is 90.2% under setting [13]; 95.9% under setting [14]; 82.6% under setting [15]; 53.8% under setting [16]; 44.8% under setting [17]; 39.6% under setting [18]. Also, the viability, T/C was 98.9% under setting [19]; 87.7% under setting [20]; 81.5% under setting [21]; 46.9% under setting [22]; 43.5% under setting [23]; 41.1% under setting [24].

For `CCC(CC)c1cc(NC2CCC(N)C2)n2nccc2n1` (stereo unspecified), the viability, T/C is 107% [middle of 4 runs] (compound 0.1 µM), 120% [middle of 4 runs] (compound 0.316 µM), 14% [middle of 4 runs] (compound 3.16 µM) and 19.9% [middle of 4 runs] (compound 10 µM). Moreover, the IC50 (curve of compound) is 2.01 µM [middle of 4 runs].

`Cc1nc(N2CCC3(CC2)COC(C)C3N)c(CO)nc1Sc1ccnc(N)c1Cl` (stereo unspecified) + C#Cc1c(F)ccc2cc(O)cc(-c3ncc4c(N5CC6CCC(C5)N6)nc(OCC56CCCN5CC(F)C6)nc4c3F)c12: the pIC50 is, setting by setting: (second compound 0.0316 µM) below 5.00; (second compound 0.1 µM) below 5.00; (second compound 0.316 µM) below 5.00; (second compound 1 µM) 6.71; (second compound 3.16 µM) above 7.50; (second compound 10 µM) above 7.50. The viability, T/C by setting is: under setting [1], 89.8%; under setting [2], 88.9%; under setting [3], 74.5%; under setting [4], 69.2%; under setting [5], 73.2%; under setting [6], 76.2%. The viability, T/C by setting is: under setting [7], 65.3%; under setting [8], 62.1%; under setting [9], 66%; under setting [10], 60%; under setting [11], 64.3%; under setting [12], 55.2%. In addition, the viability, T/C was 68.4% under setting [13]; 52.6% under setting [14]; 50.5% under setting [15]; 45.9% under setting [16]; 74.5% under setting [17]; 47.9% under setting [18]. The viability, T/C by setting is: under setting [19], 61.8%; under setting [20], 52.9%; under setting [21], 48.5%; under setting [22], 41.1%; under setting [23], 30.5%; under setting [24], 30.2%. The viability, T/C was 41.9% (second compound 3.16 µM, first compound 0.0316 µM); 35.4% (second compound 3.16 µM, first compound 0.1 µM); 32.2% (second compound 3.16 µM, first compound 0.316 µM); 21.8% (second compound 3.16 µM, first compound 1 µM); 17.3% (second compound 3.16 µM, first compound 3.16 µM); 20.2% (second compound 3.16 µM, first compound 10 µM). Also, the viability, T/C was 27% (second compound 10 µM, first compound 0.0316 µM); 13.9% (second compound 10 µM, first compound 0.1 µM); 18.9% (second compound 10 µM, first compound 0.316 µM); 11% (second compound 10 µM, first compound 1 µM); 8.6% (second compound 10 µM, first compound 3.16 µM); 9.77% (second compound 10 µM, first compound 10 µM).

For the compound `CCn1c(-c2cc(N3CCN(C)CC3)cnc2C(C)OC)c2c3cc(ccc31)-c1csc(n1)CC(NC(=O)C1CC1C)C(=O)N1CCCC(N1)C(=O)OCC(C)(C)C2` (stereo unspecified), the viability, T/C is 80.7% [middle of 7 runs] (compound 0.000949 µM); 65.2% [middle of 7 runs] (compound 0.003 µM); 49.8% [middle of 7 runs] (compound 0.00949 µM); 37.4% [middle of 7 runs] (compound 0.03 µM); 29.4% [middle of 7 runs] (compound 0.0949 µM); 28.6% [middle of 7 runs] (compound 0.3 µM). The IC50 (compound alone, run of 08/26/2024) is 8.13 nM [middle of 7 runs].

For the origin of these results see PubChem BioAssay AID2060886 (Molecular Pharmacology Branch, DTP, NCI, 2025).
